# According to patent publication US20250059153A1, “BICYCLIC QUINONES, PHARMACEUTICAL COMPOSITIONS, AND THERAPEUTIC APPLICATIONS” (priority 2022, published 2025):
# Test system: Trypanosoma cruzi trypomastigote
# Experiment: Antiparasitic activity against Trypanosoma cruzi trypomastigote (viability by mobility under optical microscope)
# Type: cell-based
# Conditions: LLC-MK2, trypomastigotes from infected LLCMK2 cells, 1×10^7 parasites/mL, 24 h at 37° C.
# Procedure: Antiparasitic Activity Against Trypanosoma cruzi
# To evaluate antiparasitic activity against Trypanosoma cruzi trypomastigote, parasites were obtained from the supernatant of infected LLCMK2 cells. Trypomastigote (1×10^7 parasites/mL) was resuspended in DMEM supplemented with 10% FBS. The parasites were incubated in the presence of a compound at 500, 200, 100, 50, 10, 5, 1, 0.5, and 0.25 μM in 96-well plates for 24 h at 37° C. with 5% CO2. After incubation, the viability of the parasites was determined by examining mobility under an optical microscope. See, e.g., Brener, Rev. Inst. Med. Trop. São Paulo. 1962, 4, 389-96.
structure (smiles),measurement,value
"Cc1cc(=O)c2occoc=2c1=O [Compound A1, 6-methylbenzo[b][1,4]dioxine-5,8-dione]",EC50,2.3 ± 0.3 µM
